Experimental findings from patent US20250057859A1, “CANNABICHROMENEQUINONE AND ANALOGUES THEREOF, AND METHOD OF USING COMPOSITIONS THEREOF AS ANTI-INFLAMMATORY AGENTS” (Juva Life, Inc., priority 2021, published 2025) are described below.

The target in the first test is T1, recombinant human LOX-5 (Homo sapiens, UniProt P09917).
T1 construct: expressed in insect cells (Amino Acids 1-674) was obtained from Cayman; purchased Cayman 60402; host or cells: insect cells
T1 sequence (P09917 1-674): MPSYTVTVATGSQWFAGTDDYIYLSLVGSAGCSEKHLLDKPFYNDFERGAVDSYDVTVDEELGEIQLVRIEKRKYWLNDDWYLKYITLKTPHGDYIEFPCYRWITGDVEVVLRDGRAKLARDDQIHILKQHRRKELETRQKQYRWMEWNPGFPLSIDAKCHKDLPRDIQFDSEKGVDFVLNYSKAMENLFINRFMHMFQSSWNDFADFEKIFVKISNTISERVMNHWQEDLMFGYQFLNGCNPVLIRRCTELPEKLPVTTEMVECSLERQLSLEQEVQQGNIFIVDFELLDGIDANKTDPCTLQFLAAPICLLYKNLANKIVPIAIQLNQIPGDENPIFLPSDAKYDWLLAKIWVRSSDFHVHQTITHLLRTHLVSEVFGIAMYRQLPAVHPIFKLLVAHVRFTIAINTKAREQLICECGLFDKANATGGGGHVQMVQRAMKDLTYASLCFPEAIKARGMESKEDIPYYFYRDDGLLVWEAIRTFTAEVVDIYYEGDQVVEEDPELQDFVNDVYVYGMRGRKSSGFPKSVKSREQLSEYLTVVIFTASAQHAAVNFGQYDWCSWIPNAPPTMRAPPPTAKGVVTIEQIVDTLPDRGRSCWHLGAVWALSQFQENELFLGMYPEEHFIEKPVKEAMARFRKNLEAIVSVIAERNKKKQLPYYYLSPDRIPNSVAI
In words: Biochemical LOX-5 assay.
Details: not given
An excerpt:
• Active recombinant human LOX-5 protein expressed in insect cells (Amino Acids 1-674) was obtained from Cayman (Cat #60402) • 2′,7′-dichlorodihydrofluorescein diacetate, H2DCFDA, was obtained from Sigma (Cat #96883) • Arachidonic acid, AA, was obtained from Sigma (Cat #A3611) • Other reagents: black 384 well assay plates were obtained from Corning (Cat #3820). • Equipment: Synergy Neo2 Multi-mode plate reader (Biotek), Labcyte 550 acoustic dispenser (Labcyte), Biomek FX robotic dispenser (Beckman Coulter), Sorvall Legend RT centrifuge (Kendro).
The LOX-5 assay was performed in assay buffer comprising: 50 mM Tris (pH 7.5), 2 mM EDTA, 2 mM CaCl2, 3 uM AA, 10 uM ATP, 10 uM H2DCFDA, and recombinant enzyme (50mU per 20 ul reaction, as defined by manufacturer). Serially diluted compounds were prepared in DMSO in Echo qualified 384 well plates. An assay buffer was then prepared without AA and ATP supplemented with 20 uM H2DCFDA. 10 μL of the supplemented buffer was dispensed into control (no enzyme) wells in the black 384well assay plate. Next, a 2× enzyme solution was prepared, comprising 100 mU LOX-5 enzyme in the supplemented assay buffer. 10 uL of the 2× enzyme solution was then dispensed into test wells in the black 384well assay plate. Serially diluted compounds were added to the assay plate by acoustic dispensing (Labcyte 550). Control wells received DMSO only.
Next, the 2× substrate was prepared to comprise 6 uM arachidonic acid and 20 uM ATP in the assay buffer. 10 μL of the 2× substrate was then added to all wells in the assay plate. The plate was incubated for 20 min. The plate was read on Synergy Neo2 in fluorescence mode: excitation 485 nm, emission 530 nm. % inhibition and the resulting IC50 was calculated for the compound using the following equation:
[formula] • where RFU100% is fluorescence in control samples without compound, RFU0% is fluorescence in control samples without LOX-5, and RFUcompound fluorescence in a sample with compound.
The calculated %-Inh values were plotted against compound concentration. To determine IC50 values, dose-response curves were fitted by a 4-parameter sigmoid inhibition model using XLFit® software (IDBS).
For `CC(C)=CCCC1(C)C=CC2=C(O1)C(=O)c1ccccc1C2=O` (centres unmarked) [Formula XXVII], the IC50 (usually the concentration that gives 50% inhibition) is greater than 10000 nM.

The test is the same for the next values; noted with them: recombinant enzyme, 3 uM AA; read-out: 5-Lox inhibitory activity IC50.
With `CCCCCC1=CC(=O)C2=C(OC(C)(CCC=C(C)C)C=C2)C1=O` (centres unmarked) [Formula II], the IC50 stood at 270 nM.
On the same count and under the same terms, with `CCCCCc1cc(OC)c2c(c1OC)OC(C)(CCC=C(C)C)C=C2` (centres unmarked) [Formula XXIV] the figure was greater than 10000 nM.
On the same count and under the same terms, with `CCCCCc1cc(OC(C)=O)c2c(c1OC(C)=O)OC(C)(CCC=C(C)C)C=C2` (centres unmarked) [Formula XXIII] the figure was 2710 nM; with `CCCCCC1=C(NCCC)C(=O)C2=C(OC(C)(CCC=C(C)C)C=C2)C1=O` (centres unmarked) [Formula XXV], 1180 nM.
With `CCCCCc1cc(O)c2c(c1O)OC(C)(CCC=C(C)C)C=C2` (centres unmarked) [Formula XXII], the IC50 turned out to be 250 nM.
Consider `CCCCCC1=CC(=O)C2=C(O[C@](C)(CCC=C(C)C)C=C2)C1=O` [Formula XXVI], for which the IC50 is 230 nM.
Same read-out and setting: with `CCCCCC1=C(NCC)C(=O)C2=C(OC(C)(CCC=C(C)C)C=C2)C1=O` (centres unmarked) [Formula XXVIII] the figure was greater than 10000 nM.
